Measured values reported in ChEMBL document CHEMBL4190346, “Structure-based design, synthesis, and biological evaluation of withaferin A-analogues as potent apoptotic inducers” (Eur J Med Chem, 2017).

Tests used:
HeLa [1] = test: Cytotoxicity against human HeLa cells assessed as reduction in cell viability using compound addition to cell culture cells in lag phase of growth and incubated for 48 hrs by MTT assay; format: functional, cell-based; conditions: Homo sapiens, HeLa, 48 h; read-out: IC50
HeLa [2] = test: Cytotoxicity against human HeLa cells assessed as reduction in cell viability using compound addition to cell culture cells in log phase of growth and incubated for 48 hrs by MTT assay; format: functional, cell-based; conditions: Homo sapiens, HeLa, 48 h; read-out: IC50
A549 [3] = test: Cytotoxicity against human A549 cells assessed as reduction in cell viability using compound addition to cell culture cells in lag phase of growth and incubated for 48 hrs by MTT assay; format: functional, cell-based; conditions: Homo sapiens, A549, 48 h; read-out: IC50
A549 [4] = test: Cytotoxicity against human A549 cells assessed as reduction in cell viability using compound addition to cell culture cells in log phase of growth and incubated for 48 hrs by MTT assay; format: functional, cell-based; conditions: Homo sapiens, A549, 48 h; read-out: IC50
MCF7 [5] = test: Cytotoxicity against human MCF7 cells assessed as reduction in cell viability using compound addition to cell culture cells in lag phase of growth and incubated for 48 hrs by MTT assay; format: functional, cell-based; conditions: Homo sapiens, MCF7, 48 h; read-out: IC50
MCF7 [6] = test: Cytotoxicity against human MCF7 cells assessed as reduction in cell viability using compound addition to cell culture cells in log phase of growth and incubated for 48 hrs by MTT assay; format: functional, cell-based; conditions: Homo sapiens, MCF7, 48 h; read-out: IC50
Vero [7] = test: Cytotoxicity against African green monkey Vero cells assessed as reduction in cell viability using compound addition to cell culture cells in lag phase of growth and incubated for 48 hrs by MTT assay; format: cell-based, Chlorocebus sabaeus; conditions: Chlorocebus sabaeus, Vero, 48 h; read-out: IC50
Vero [8] = test: Cytotoxicity against African green monkey Vero cells assessed as reduction in cell viability using compound addition to cell culture cells in log phase of growth and incubated for 48 hrs by MTT assay; format: cell-based, Chlorocebus sabaeus; conditions: Chlorocebus sabaeus, Vero, 48 h; read-out: IC50
MCF7 [9] = test: Ratio of IC50 for cytotoxicity against human MCF7 cells incubated for 48 hrs to IC50 for cytotoxicity against human MCF7 cells incubated for 72 hrs; format: functional
MCF7 (Homo sapiens) [10] = test: Ratio of IC50 for cytotoxicity against human MCF7 cells incubated for 48 hrs to IC50 for cytotoxicity against human MCF7 cells incubated for 72 hrs
MCF7 (Homo sapiens) [11] = test: as above; remark: listed apart in the source

| Structure (SMILES) | IC50 (HeLa [1]) | IC50 (HeLa [2]) | IC50 (A549 [3]) | IC50 (A549 [4]) | IC50 (MCF7 [5]) | IC50 (MCF7 [6]) | IC50 (Vero [7]) | IC50 (Vero [8]) | Ratio IC50 (MCF7 [9]) | Ratio IC50 (MCF7 (Homo sapiens) [10]) | Ratio IC50 (MCF7 (Homo sapiens) [11]) |
| --- | --- | --- | --- | --- | --- | --- | --- | --- | --- | --- | --- |
| CC1=C(COC(=O)c2ccoc2)C(=O)O[C@@H]([C@@H](C)[C@H]2CC[C@H]3[C@@H]4C[C@H]5O[C@]56[C@@H](OC(=O)c5ccoc5)C=CC(=O)[C@]6(C)[C@H]4CC[C@]23C)C1 | 2.9 µM | 3.8 µM | 3.6 µM | 3.8 µM | 1.5 µM | 1.7 µM | 0.9 µM | 0.9 µM | >3 | >3 | >3 |
| CC1=C(C=O)C(=O)O[C@@H]([C@@H](C)[C@H]2CC[C@H]3[C@@H]4C[C@H]5O[C@]56[C@@H](O)C=CC(=O)[C@]6(C)[C@H]4CC[C@]23C)C1 | 6.5 µM | 10.9 µM | 15.7 µM | 13.5 µM | 3.7 µM | 2.1 µM | 4.4 µM | 3.6 µM | >3 | >3 | >3 |
| CC1=C(CO)C(=O)O[C@@H]([C@@H](C)[C@H]2CC[C@H]3[C@@H]4C[C@H]5O[C@]56[C@@H](O)C=C[C@@H](O)[C@]6(C)[C@H]4CC[C@]23C)C1 | 15.8 µM | 17.5 µM | > 40 µM | 17.3 µM | 16.8 µM | 7.5 µM | 7.1 µM | 6 µM | >3 | >3 | >3 |
| CC1=C(COC(=O)c2cccc3ccccc23)C(=O)O[C@@H]([C@@H](C)[C@H]2CC[C@H]3[C@@H]4C[C@H]5O[C@]56[C@@H](O)C=CC(=O)[C@]6(C)[C@H]4CC[C@]23C)C1 | 2 µM | 3.5 µM | 6.4 µM | 13.7 µM | 0.9 µM | 2.2 µM | 0.4 µM | 0.6 µM | >3 | >3 | >3 |
| CNc1ccccc1C(=O)OCC1=C(C)C[C@H]([C@@H](C)[C@H]2CC[C@H]3[C@@H]4C[C@H]5O[C@]56[C@@H](O)C=CC(=O)[C@]6(C)[C@H]4CC[C@]23C)OC1=O | 1.6 µM | 4.2 µM | 3.7 µM | 4.7 µM | 1.6 µM | 1 µM | 1.2 µM | 1.6 µM | >3 | >3 | >3 |
| CCCCCCCC(=O)OCC1=C(C)C[C@H]([C@@H](C)[C@H]2CC[C@H]3[C@@H]4C[C@H]5O[C@]56[C@@H](OC(=O)CCCCCCC)C=CC(=O)[C@]6(C)[C@H]4CC[C@]23C)OC1=O | 33.8 µM | > 40 µM | > 40 µM | > 40 µM | 23.8 µM | 33.5 µM | 3.3 µM | 18.3 µM | >3 | >3 | >3 |
| CC1=C(CO)C(=O)O[C@@H]([C@@H](C)[C@H]2CC[C@H]3[C@@H]4C[C@@H](O)[C@]5(C=O)C=CC(=O)[C@]5(C)[C@H]4CC[C@]23C)C1 | – | > 40 µM | – | > 40 µM | – | > 40 µM | – | > 40 µM | >3 | >3 | >3 |
| CO[C@H]1C=CC(=O)[C@]2(C)[C@H]3CC[C@]4(C)[C@@H]([C@H](C)[C@H]5CC(C)=C(CO)C(=O)O5)CC[C@H]4[C@@H]3C[C@H]3O[C@]132 | 2.1 µM | 3.8 µM | 4 µM | 4.4 µM | 1.1 µM | 1.7 µM | 0.9 µM | 1.5 µM | – | – | – |
| CCC(=O)OCC1=C(C)C[C@H]([C@@H](C)[C@H]2CC[C@H]3[C@@H]4C[C@H]5O[C@]56C(=O)C=CC(=O)[C@]6(C)[C@H]4CC[C@]23C)OC1=O | 4.7 µM | 6.8 µM | 4.2 µM | 8.3 µM | 6 µM | 2.3 µM | 3.8 µM | 1.1 µM | – | – | – |
| COc1ccc(C(=O)OCC2=C(C)C[C@H]([C@@H](C)[C@H]3CC[C@H]4[C@@H]5C[C@H](Cl)[C@]6(O)[C@@H](O)C=CC(=O)[C@]6(C)[C@H]5CC[C@]34C)OC2=O)cc1 | 26.4 µM | 37.7 µM | > 40 µM | > 40 µM | 3 µM | 6.8 µM | 3.8 µM | 6.8 µM | – | – | – |
| CCCCCCCC(=O)OCC1=C(C)C[C@H]([C@@H](C)[C@H]2CC[C@H]3[C@@H]4C[C@H](Cl)[C@]5(O)[C@@H](OC(=O)CCCCCCC)C=CC(=O)[C@]5(C)[C@H]4CC[C@]23C)OC1=O | > 40 µM | > 40 µM | > 40 µM | > 40 µM | > 40 µM | > 40 µM | > 40 µM | > 40 µM | – | – | – |
| CC1=C(CO)C(=O)O[C@@H]([C@@H](C)[C@H]2CC[C@H]3[C@@H]4C[C@H]5O[C@]56[C@@H](O)[C@@H](N(Cc5ccccc5)Cc5ccccc5)CC(=O)[C@]6(C)[C@H]4CC[C@]23C)C1 | 22.2 µM | > 40 µM | 40 µM | > 40 µM | 15.4 µM | 18.5 µM | 32.9 µM | 15.6 µM | >3 | >3 | >3 |
| CCCCN[C@H]1CC(=O)[C@]2(C)[C@H]3CC[C@]4(C)[C@@H]([C@H](C)[C@H]5CC(C)=C(CO)C(=O)O5)CC[C@H]4[C@@H]3C[C@H]3O[C@]32[C@H]1O | 9.6 µM | 8.4 µM | 21.8 µM | 9.6 µM | 7.6 µM | 6.9 µM | 13.6 µM | 20.6 µM | – | – | – |
| CC1=C(CCl)C(=O)O[C@@H]([C@@H](C)[C@H]2CC[C@H]3[C@@H]4C[C@H]5O[C@]56[C@@H](O)C=CC(=O)[C@]6(C)[C@H]4CC[C@]23C)C1 | 2.5 µM | 2.8 µM | 2 µM | 3.6 µM | 1.1 µM | 1 µM | 0.5 µM | 0.6 µM | – | – | – |
| CC1=C(COC(=O)c2cccc3ccccc23)C(=O)O[C@@H]([C@@H](C)[C@H]2CC[C@H]3[C@@H]4C[C@H]5O[C@]56[C@@H](OC(=O)c5cccc7ccccc57)C=CC(=O)[C@]6(C)[C@H]4CC[C@]23C)C1 | > 40 µM | > 40 µM | > 40 µM | > 40 µM | > 40 µM | > 40 µM | > 40 µM | > 40 µM | – | – | – |
| CCCCCCCCCCCC(=O)OCC1=C(C)C[C@H]([C@@H](C)[C@H]2CC[C@H]3[C@@H]4C[C@H]5O[C@]56[C@@H](O)C=CC(=O)[C@]6(C)[C@H]4CC[C@]23C)OC1=O | 3.7 µM | 4.7 µM | 10.2 µM | 12.2 µM | 2.4 µM | 3.5 µM | 1.9 µM | 4.7 µM | – | – | – |
| COCC1=C(C)C[C@H]([C@@H](C)[C@H]2CC[C@H]3[C@@H]4C[C@H]5O[C@]56[C@@H](O)C=CC(=O)[C@]6(C)[C@H]4CC[C@]23C)OC1=O | 3.2 µM | 3.3 µM | 4.2 µM | 5.3 µM | 1.4 µM | 1.9 µM | 0.9 µM | 1.5 µM | – | – | – |
| CC1=C(CO)C(=O)O[C@@H]([C@@H](C)[C@H]2CC[C@H]3[C@@H]4C[C@@H](O)[C@]56ON[C@H](CC(=O)[C@]5(C)[C@H]4CC[C@]23C)[C@@H]6O)C1 | > 40 µM | > 40 µM | > 40 µM | > 40 µM | > 40 µM | > 40 µM | > 40 µM | > 40 µM | – | – | – |
| C=C1C(=O)O[C@@H]([C@@H](C)[C@H]2CC[C@H]3[C@@H]4C[C@H]5O[C@]56[C@@H](O)[C@@H](OC)CC(=O)[C@]6(C)[C@H]4CC[C@]23C)C=C1C | > 40 µM | > 40 µM | > 40 µM | > 40 µM | > 40 µM | 23 µM | > 40 µM | > 40 µM | – | – | – |
